Converted amounts (≈) assume the structure as drawn.
Assays:
Format in all cases: functional
Streptococcus pneumoniae [1] = assay: Antibacterial activity against gatifloxacin resistance selected Streptococcus pneumoniae 1076 with ParC S79Y mutation after 10 antibiotic-free subcultures by macrodilution method
Streptococcus pneumoniae [2] = assay: Antibacterial activity against clarithromycin resistance selected Streptococcus pneumoniae 3243 with 23S rRNA A2059T mutation after 41 passages by macrodilution method
Streptococcus pneumoniae [3] = assay: Antibacterial activity against Streptococcus pneumoniae assessed as period of suppression of bacterial growth
Streptococcus pneumoniae [4] = assay: Antibacterial activity against Streptococcus pneumoniae 3676 by macrodilution method
Streptococcus pneumoniae [5] = assay: Antibacterial activity against azithromycin resistance selected Streptococcus pneumoniae 3243 with L22 insertion 93SFRPRA94 mutation after 10 antibiotic-free subcultures by macrodilution method
Streptococcus pneumoniae [6] = assay: Antibacterial activity against gatifloxacin resistance selected Streptococcus pneumoniae 3009 after 10 antibiotic-free subcultures by macrodilution method
Streptococcus pneumoniae [7] = assay: Antibacterial activity against azithromycin resistance selected Streptococcus pneumoniae 1077 with 23S rRNA A2058G mutation after 10 antibiotic-free subcultures by macrodilution method
Streptococcus pneumoniae [8] = assay: Antibacterial activity against Streptococcus pneumoniae 3009 by macrodilution method
Streptococcus pneumoniae [9] = assay: Antibacterial activity against moxifloxacin resistance selected Streptococcus pneumoniae 1076 with ParC S79Y mutation after 10 antibiotic-free subcultures by macrodilution method
Streptococcus pneumoniae [10] = assay: Antibacterial activity against clarithromycin resistance selected Streptococcus pneumoniae 3676 after 44 passages by macrodilution method
Streptococcus pneumoniae [11] = assay: Antibacterial activity against azithromycin resistance selected Streptococcus pneumoniae 2527 after 10 antibiotic-free subcultures by macrodilution method
Streptococcus pneumoniae [12] = assay: Antibacterial activity against clarithromycin resistance selected Streptococcus pneumoniae 3676 after 10 antibiotic-free subcultures by macrodilution method
Streptococcus pneumoniae [13] = assay: Antibacterial activity against Streptococcus pneumoniae 3665 by macrodilution method
Streptococcus pneumoniae [14] = assay: Antibacterial activity against moxifloxacin resistance selected Streptococcus pneumoniae 3665 with GyrA S81Y mutation after 10 antibiotic-free subcultures by macrodilution method
Streptococcus pneumoniae [15] = assay: Antibacterial activity against clarithromycin resistance selected Streptococcus pneumoniae 3009 after 25 passages by macrodilution method
Streptococcus pneumoniae [16] = assay: Antibacterial activity against moxifloxacin resistance selected Streptococcus pneumoniae 24 with GyrA S81Y, GyrB P413S and ParC S79F mutation after 10 antibiotic-free subcultures by macrodilution method
Streptococcus pneumoniae [17] = assay: Antibacterial activity against clarithromycin resistance selected Streptococcus pneumoniae 3665 after 26 passages by macrodilution method
Streptococcus pneumoniae [18] = assay: Antibacterial activity against moxifloxacin resistance selected Streptococcus pneumoniae 19 with GyrA S81F mutation after 10 antibiotic-free subcultures by macrodilution method
Streptococcus pneumoniae [19] = assay: Antibacterial activity against gatifloxacin resistance selected Streptococcus pneumoniae 37 with GyrA S81Y, GyrB E474K and ParC S79Y mutation after 10 antibiotic-free subcultures by macrodilution method
Streptococcus pneumoniae [20] = assay: Antibacterial activity against clarithromycin resistance selected Streptococcus pneumoniae 3009 after 10 antibiotic-free subcultures by macrodilution method
Streptococcus pneumoniae [21] = assay: Antibacterial activity against Streptococcus pneumoniae 3243 by macrodilution method
Streptococcus pneumoniae [22] = assay: Antibacterial activity against levofloxacin resistance selected Streptococcus pneumoniae 3009 with GyrA S81Y and ParC S79Y mutation after 10 antibiotic-free subcultures by macrodilution method
Streptococcus pneumoniae [23] = assay: Antibacterial activity against moxifloxacin resistance selected Streptococcus pneumoniae 3243 after 10 antibiotic-free subcultures by macrodilution method
Streptococcus pneumoniae [24] = assay: Antibacterial activity against clarithromycin resistance selected Streptococcus pneumoniae 3243 with 23S rRNA A2059T mutation after 10 antibiotic-free subcultures by macrodilution method
Streptococcus pneumoniae [25] = assay: Antibacterial activity against levofloxacin resistance selected Streptococcus pneumoniae 19 with GyrA S81Y and ParC D83Y mutation after 10 antibiotic-free subcultures by macrodilution method
Streptococcus pneumoniae [26] = assay: Antibacterial activity against moxifloxacin resistance selected Streptococcus pneumoniae 3009 with GyrA S81F and ParC D83N mutation after 10 antibiotic-free subcultures by macrodilution method
Streptococcus pneumoniae [27] = assay: Antibacterial activity against clarithromycin resistance selected Streptococcus pneumoniae 3665 after 10 antibiotic-free subcultures by macrodilution method
Streptococcus pneumoniae [28] = assay: Antibacterial activity against moxifloxacin resistance selected Streptococcus pneumoniae 3676 with GyrA E85G, GyrB S478I and ParC S79Y mutation after 10 antibiotic-free subcultures by macrodilution method

| Compound | MIC (Streptococcus pneumoniae [1]) [µg/mL] | Post Antibiotic Effe (Streptococcus pneumoniae [3]) [h] | MIC (Streptococcus pneumoniae [5]) [µg/mL] | MIC (Streptococcus pneumoniae [6]) [µg/mL] | MIC (Streptococcus pneumoniae [7]) [µg/mL] | MIC (Streptococcus pneumoniae [9]) [µg/mL] | MIC (Streptococcus pneumoniae [11]) [µg/mL] | MIC (Streptococcus pneumoniae [12]) [µg/mL] | MIC (Streptococcus pneumoniae [14]) [µg/mL] | MIC (Streptococcus pneumoniae [16]) [µg/mL] | MIC (Streptococcus pneumoniae [18]) [µg/mL] | MIC (Streptococcus pneumoniae [19]) [µg/mL] | MIC (Streptococcus pneumoniae [20]) [µg/mL] | MIC (Streptococcus pneumoniae [22]) [µg/mL] | MIC (Streptococcus pneumoniae [23]) [µg/mL] | MIC (Streptococcus pneumoniae [24]) [µg/mL] | MIC (Streptococcus pneumoniae [25]) [µg/mL] | MIC (Streptococcus pneumoniae [26]) [µg/mL] | MIC (Streptococcus pneumoniae [27]) [µg/mL] | MIC (Streptococcus pneumoniae [28]) [µg/mL] | further results |
| --- | --- | --- | --- | --- | --- | --- | --- | --- | --- | --- | --- | --- | --- | --- | --- | --- | --- | --- | --- | --- | --- |
| CC[C@H]1OC(=O)[C@H](C)[C@@H](O[C@H]2C[C@@](C)(OC)[C@@H](O)[C@H](C)O2)[C@H](C)[C@@H](O[C@@H]2O[C@H](C)C[C@H](N(C)C)[C@H]2O)[C@](C)(OC)C[C@@H](C)C(=O)[C@H](C)[C@@H](O)[C@]1(C)O [CLARITHROMYCIN] | > 128 | 3.8 | 0.5 (≈ 0.668 µM) | 2 (≈ 2.67 µM) | > 128 | > 128 | 16 (≈ 21.4 µM) | 16 (≈ 21.4 µM) | 2 (≈ 2.67 µM) | > 128 | > 128 | > 128 | 64 (≈ 85.6 µM) | 0.5 (≈ 0.668 µM) | 0.004 (≈ 0.00535 µM) | 0.25 (≈ 0.334 µM) | > 128 | 4 (≈ 5.35 µM) | 8 (≈ 10.7 µM) | 4 (≈ 5.35 µM) | MIC (Streptococcus pneumoniae [2]): 0.25 µg/mL (≈ 0.334 µM); MIC (Streptococcus pneumoniae [4]): 4 µg/mL (≈ 5.35 µM); MIC (Streptococcus pneumoniae [8]): 16 µg/mL (≈ 21.4 µM); MIC (Streptococcus pneumoniae [10]): 32 µg/mL (≈ 42.8 µM); MIC (Streptococcus pneumoniae [13]): 2 µg/mL (≈ 2.67 µM); MIC (Streptococcus pneumoniae [15]): > 128 µg/mL; MIC (Streptococcus pneumoniae [17]): 16 µg/mL (≈ 21.4 µM); MIC (Streptococcus pneumoniae [21]): 0.016 µg/mL (≈ 0.0214 µM) |
| CO/N=C(\C(=O)N[C@@H]1C(=O)N2C(C(=O)O)=C(CSc3nc(=O)c(O)nn3C)CS[C@H]12)c1csc(N)n1 [CEFTRIAXONE] | 0.016 (≈ 0.0289 µM) | 1.3 | 0.125 (≈ 0.225 µM) | 0.016 (≈ 0.0289 µM) | 0.03 (≈ 0.0541 µM) | 0.016 (≈ 0.0289 µM) | 2 (≈ 3.61 µM) | 0.03 (≈ 0.0541 µM) | 0.06 (≈ 0.108 µM) | 1 (≈ 1.8 µM) | 2 (≈ 3.61 µM) | 2 (≈ 3.61 µM) | 0.016 (≈ 0.0289 µM) | 0.016 (≈ 0.0289 µM) | ≤ 0.008 | 0.125 (≈ 0.225 µM) | 2 (≈ 3.61 µM) | 0.03 (≈ 0.0541 µM) | 0.03 (≈ 0.0541 µM) | 0.03 (≈ 0.0541 µM) |  |
| C=CC1=C(C(=O)O)N2C(=O)[C@@H](NC(=O)/C(=N\O)c3csc(N)n3)[C@H]2SC1 | 0.125 (≈ 0.316 µM) | 1.6 | 0.125 (≈ 0.316 µM) | 0.125 (≈ 0.316 µM) | 0.06 (≈ 0.152 µM) | 0.06 (≈ 0.152 µM) | 16 (≈ 40.5 µM) | 0.06 (≈ 0.152 µM) | 0.125 (≈ 0.316 µM) | 2 (≈ 5.06 µM) | 2 (≈ 5.06 µM) | 4 (≈ 10.1 µM) | 0.125 (≈ 0.316 µM) | 0.06 (≈ 0.152 µM) | 0.06 (≈ 0.152 µM) | 0.25 (≈ 0.632 µM) | 4 (≈ 10.1 µM) | 0.06 (≈ 0.152 µM) | 0.25 (≈ 0.632 µM) | 0.125 (≈ 0.316 µM) |  |
| CO/N=C(\C(=O)N[C@@H]1C(=O)N2C(C(=O)O)=C(COC(N)=O)CS[C@H]12)c1ccco1 [CEFUROXIME] | 0.125 (≈ 0.295 µM) | 1.5 | 0.5 (≈ 1.18 µM) | 0.03 (≈ 0.0707 µM) | 0.03 (≈ 0.0707 µM) | 0.03 (≈ 0.0707 µM) | 16 (≈ 37.7 µM) | 0.125 (≈ 0.295 µM) | 0.5 (≈ 1.18 µM) | 2 (≈ 4.71 µM) | 2 (≈ 4.71 µM) | 2 (≈ 4.71 µM) | 0.03 (≈ 0.0707 µM) | ≤ 0.016 | 0.25 (≈ 0.589 µM) | 0.25 (≈ 0.589 µM) | 2 (≈ 4.71 µM) | 0.03 (≈ 0.0707 µM) | 0.125 (≈ 0.295 µM) | 0.125 (≈ 0.295 µM) |  |

— ChEMBL document CHEMBL1142186, “Multistep resistance selection and postantibiotic-effect studies of the antipneumococcal activity of LBM415 compared to other agents” (2007)
